Series [1] deals with Mb-PylRS/tRNACUA pairs D4 and E1. Put plainly: Efficiency, fidelity and permissivity of evolved synthetases: GFP150-TAG expression in E. coli with Tet ncAA. The settings on record: synthetases D4 and E1. It is filed as cell-based, Methanosarcina barkeri. As to the method:
(§1) To incorporate Tet ncAAs in the protein, a GCE machinery was developed to encode Tet ncAAs into the protein in response to TAG codon suppression with evolving orthogonal aaRS/tRNAcuA pair. The permissibility of developed synthetases for structurally parallel Tet ncAA derivatives was evaluated in 25 mL scale in presence and absence of 0.5 mM Tet ncAA.
(§2) Efficiency and fidelity of selected synthetases. The efficiency and fidelity of the selected synthetases were measured by expressing GFP150 in 50 mL AIM with and without 0.5 mM Tet4-Ph. DH10b cells containing the selected pBK-RSs and the pALS-GFP150TAG plasmids, were used to inoculate 5 mL of NIM containing kanamycin (50 μg/mL) and tetracycline (25 μg/mL). Cells were grown for 16 hours at 37° C. shaking at 250 rpm. The saturated NIM cultures (500 μL) were used to inoculate in 50 mL AIM containing kanamycin (50 μg/mL) and tetracycline (25 μg/mL) and measured fluorescence using a Turner Biosystems Picofluor fluorimeter diluting 100 μL cell culture in 1.9 mL water. Two synthetases D4 and E1 for Tet4-Ph were identified to have good efficiency and fidelity. The selected two synthetases are differ at two mutation sites C313A/G and W382I/V respectively.
(§3) Permissivity screen for Tet4-Pyr with selected synthetases. To assess if the top four selected RSs for Tet4-Ph could incorporate Tet4-Pyr, expressions of GFP150TAG with Tet4-Pyr were evaluated. Using the above efficiency and fidelity method, 5 mL AIM separate cultures were inoculated with cells containing the pBK-RSs/pALS-GFP150. Tet4-Pyr (0.5 mM) was added to cultures from a 50 mM DMF ncAA stock solution. Cultures were grown for 30-36 hours at 37° C. and 250 rpm. Fluorescence of the culture was measured by diluting 100 μL cell culture in 1.9 mL water.
(§4) Expression and purification of GFP150-TAG-Tet4. […] Protein concentration was determined by measuring absorbance at 280 nm. Protein purity was assessed using SDS-PAGE.

The nature of series [2]: Stability and reactivity of incorporated Tet ncAA inside protein on storage in PBS. It counts as physicochemical. As to the method:
The stability and reaction efficiency of incorporated Tet ncAAs in proteins was investigated. […] The SDS-PAGE gel mobility shift assay and mass spectrometry analysis of the incorporated Tet-v2.0, Tet-v3.0 and Tet-v4.0 derivatives confirmed their stability and reactivity with sTCO.
Mobility shift assay. Labeling efficiency and purity of Tet-containing proteins have been verified by reacting with 10 eqv. sTCO-PEG5k under PBS (pH 7.1) for 10 minutes at room temperature and examined the mobility shift of the reacted proteins in SDS-PAGE gel. The mobility shift assay helps to provide an insight into the reaction efficiency of Tet-containing proteins and also quantifies the amount of reactive Tet ncAA present in protein and measures if there is any misincorporation or Tet-degradation by showing unreactive protein.
In addition, to assess their stability and reactivity more rigorously, GFP-Tet-v4.0 (Ph, 3-Me-Ph, 3-F-Ph and Pyr) were incubated at 4° C. and room temperature (RT) under 50 mM PBS (pH 7.1) with 100 mM imidazole and studied their reaction efficiency for another 8 days.
Mass spectrometry. The site-specific labelling reaction between Tet ncAA and sTCO is quantitative inside protein was confirmed by ESI-Q-TOF mass spectrometry. […] No other peak has been detected for sTCO exposed samples which verified that the GFP-Tet reacts with sTCO quantitatively without involving side reactions.

Series [3] concerns Pyl-tRNA/RS pairs (Tet4 E1 and D4 synthetases). Put plainly: Tet4 ncAA incorporation into GFP150-TAG in HEK293T cells, suppression efficiency by flow cytometry. It is filed as cell-based, Methanosarcina barkeri. The following applies: flow cytometry. As to the method: (§5) To access newly developed Tet4.0 derivatives into mammalian cells, an optimized eukaryotic expression system was used and their stability and reaction efficiency were validated inside living cells. The permissibility of Tet-v4.0 derivatives into eukaryotic protein was tested with an evolved synthetase Tet-v4.0 E1 and D4 co-transfected with the reporter plasmid pAcBac1-sfGFP-TAG150 into the HEK293T cells and supplemented with 100 μM each of five different Tet-v4.0 (Ph, 3-Me-Ph, 3-F-Ph, 4-F-Ph, and Pyr) derivatives side-by-side.
(§6) The compatibility of the Tet4 system with mammalian cells was explored. Specifically, the ability of Tet4 to be incorporated into proteins expressed in HEK293T cells, an immortalized human embryonic kidney cell line, was explored. […] Genes for Tet4 E1 and D4 synthetases were cloned with a terminal nuclear export sequence into the eukaryotic expression Pyl-tRNA/RS vector pAcBac1. Pyl-tRNA/RS pairs were then co-transfected with pAcBac1-GFP150-TAG into HEK293T cells and incubated either in the absence of ncAA, or with various concentrations of Tet4 ncAAs, and suppression efficiencies were assessed using flow cytometry. Tet4-Ph and Tet4-Pyr were incorporated into GFP about 50% as well as the Tet-v3.0 system, Tet3-Bu. As with Tet4 incorporation into E. coli expressed proteins, the highest suppression efficiencies in HEK293T cells were obtained with Mb-PylRS synthetase E1 and Tet4-Ph ncAA. Selective incorporation and reactivity of GFP150-Tet4 proteins were verified in whole-cell HEK293T lysates using sTCO-PEG5k-induced SDS-PAGE mobility shifts, and in purified proteins by mass spectrometry.
(§7) Transfection of HEK293T cells and imaging method. HEK293T cells were plated in a 24-well plate at the density of 40% confluency. Cells were transfected the next day using jetPRIME reagent according to the manufacturer's protocol. Briefly, 67 ng of pAcBac1-NES-D4-RS or pAcBac1-NES-E1-RS and 555 ng of pAcBac1-GFP-150TAG plasmid DNA were diluted with 50 μL of jetPRIME buffer. […] GFP expression was verified by fluorescence microscopy on EVOS FL imaging system.
For orientation: Flow cytometry measures light scatter and fluorescence of single cells or particles in a stream.

Series [4] concerns the target T1, Mb-PylRS/tRNACUA pairs D4 and E1 (Methanosarcina barkeri, UniProt Q6WRH6, C313A/N311S/V366H/W382I).
T1 construct: D4-Py1RS (Protein); expressed in transfected cells; host or cells: E. coli DH10b carrying pBK-RS and pALS-GFP150TAG
Put plainly: Efficiency, fidelity and permissivity of evolved synthetases: GFP150-TAG expression in E. coli with Tet ncAA. It counts as cell-based. The following applies: synthetase D4 only. As to the method:
as §1, §2, §3, §4

Series [5] deals with T2, Pyl-tRNA/RS pairs (Tet4 E1 and D4 synthetases) (Methanosarcina barkeri, UniProt Q6WRH6, C313A/N311S/V366H/W382I).
T2 construct: D4-Py1RS (Protein); expressed in transfected cells; host or cells: HEK293T
T2 sequence (Q6WRH6 whole entry N311S/C313A/V366H/W382I): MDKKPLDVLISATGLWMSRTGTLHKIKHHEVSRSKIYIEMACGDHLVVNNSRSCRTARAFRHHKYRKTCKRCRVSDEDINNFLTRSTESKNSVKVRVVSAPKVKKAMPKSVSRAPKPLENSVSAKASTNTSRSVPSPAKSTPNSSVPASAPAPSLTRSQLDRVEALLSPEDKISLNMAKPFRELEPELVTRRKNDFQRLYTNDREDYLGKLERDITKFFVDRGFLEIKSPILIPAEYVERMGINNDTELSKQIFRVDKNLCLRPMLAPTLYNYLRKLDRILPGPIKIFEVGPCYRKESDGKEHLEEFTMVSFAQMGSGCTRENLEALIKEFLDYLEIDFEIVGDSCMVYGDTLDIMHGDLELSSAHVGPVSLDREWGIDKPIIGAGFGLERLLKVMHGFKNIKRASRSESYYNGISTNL
Put plainly: Tet4 ncAA incorporation into GFP150-TAG in HEK293T cells, suppression efficiency by flow cytometry. It counts as cell-based. The following applies: 100 μM ncAA, synthetase D4. As for the experimental part: as §5, §6, §7

T1 sequence (Q6WRH6 whole entry N311S/C313A/V366H/W382I): as above

For the compound `N[C@@H](Cc1nnc(-c2ccccc2)nn1)C(=O)O` [Tet4-Ph, (S)-2-amino-3-(6-phenyl-1,2,4,5-tetrazin-3-yl)propanoic acid], the “yield of GFP150-TAG expressed with the ncAA” value in series [1] lay within 55 to 60 mg/L. The stability inside protein entry in series [2] (PBS pH 7.1, both 4° C. and RT, after 8 days) is reported as “highly stable”. Also, in series [3], the “incorporation into GFP relative to the Tet-v3.0 system, Tet3-Bu” value is on record as “about 50%”.
Turning to `N[C@@H](Cc1nnc(-c2ccccn2)nn1)C(=O)O` [Tet4-Pyr, (S)-2-amino-3-(6-(pyridin-2-yl)-1,2,4,5-tetrazin-3-yl)propanoic acid], the “yield of GFP150-TAG expressed with the ncAA” value is “about 40 mg/L” in series [4] and 35 to 40 mg/L in series [4] (listed as Tet-v4.0Pyr). For the same compound, in series [2] (GFP-Tet protein, PBS pH 7.1, room temperature), the “stability and reactivity inside protein” value is reported as “degraded with time”. The “incorporation into GFP-TAG150” value in series [5] is recorded as “relatively high yield”. Besides, the “incorporation into GFP relative to the Tet-v3.0 system, Tet3-Bu” value in series [3] was “about 50%”.
